Format in all cases: functional, cell-based
One assay deals with P388. Briefly: Cytotoxicity against mouse P388 cells.
The subject of a further assay is L1210. Briefly: Cytotoxicity against mouse L1210 cells.
For another assay, the system named is KB. Nature of the assay: Cytotoxicity against human KB cells.

Molecules are shown by their SMILES. Converted amounts (≈) assume the structure as drawn.

We go through five compounds from ChEMBL document CHEMBL1800045, “Eudistomidins H-K, new β-carboline alkaloids from the Okinawan marine tunicate Eudistoma glaucus” (Bioorg Med Chem Lett, 2011).

As a reminder, the IC50 is the concentration at which inhibition is half-maximal. Low readings indicate higher potency, high ones lower potency. In the case of `CN1Cn2c3c(c4cc(Br)ccc42)CCN(C)[C@@H]3[C@@H]1Cc1ccccc1` [EUDISTOMIDIN I], the IC50 in the assay on P388, in the assay with L1210 and in the assay with KB was more than 10 mg/L throughout.

`CN1Cn2c3c(c4ccc(Br)cc42)CCN(C)[C@@H]3[C@@H]1Cc1ccccc1` [EUDISTOMIDIN H]: the IC50 in the assay on P388, in the assay with L1210 and in the assay on KB was more than 10 mg/L in each case.

For `CN[C@H](C[S+](C)[O-])c1nccc2c1[nH]c1ccc(O)c(Br)c12` (stereo partly drawn) [EUDISTOMIDIN J], the IC50 worked out at 0.043 mg/L (≈ 0.112 µM) in the assay on P388, 0.047 mg/L (≈ 0.123 µM) in the assay on L1210 and 0.063 mg/L (≈ 0.165 µM) with KB.

Regarding `CN[C@H](CSC)c1nccc2c1[nH]c1ccc(O)c(Br)c12` [EUDISTOMIDIN C], 0.36 mg/L (≈ 0.983 µM) corresponded to half-maximal inhibition with L1210 (IC50).

`CC(=O)c1nccc2c1[nH]c1ccc(O)c(Br)c12` [EUDISTOMIDIN K]: the IC50 in the assay on P388, with L1210 and in the assay on KB was more than 10 mg/L throughout.
